Among the data in PubChem BioAssay (NCI) are GI50 and TGI values, retold here.

“And” between values parts separate entries of the source, which are not always exact repeats. Equal values may be shown once.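 Exposure lasted 48 hours, with cells grown in 96-well plates and compounds tested at five concentrations. GI50 is the concentration that inhibits growth by half. Definition used: TGI = concentration required for complete inhibition of growth.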 Some results are limits rather than exact numbers.

This experiment deals with MDA-MB-468 breast. In words: growth of human tumour cells (NCI), 48 h.
As to `C#Cc1cccc(Nc2nc3ccc([N+](=O)[O-])cc3nc2Nc2cccc(C#C)c2)c1`, the GI50 is 174 nM and the TGI is 499 nM.

As to `C#CCOc1cccc(Nc2ncnc3ccc(NC(=O)CCl)cc23)c1`, the GI50 was 3160 nM and the TGI was found to be 27200 nM.

As to `COc1ccc(C(=O)COc2cccc(/C=C3\CSc4ccc(C)cc4C3=O)c2)cc1`, the GI50 was 4840 nM and the TGI was 36900 nM.

Consider `Cc1ccc(S(=O)(=O)Cc2nc(-c3ccc(C(=O)NCc4cccnc4)cc3)oc2C)cc1`, for which the GI50 is 4740 nM and the TGI is greater than 100000 nM.

Turning to `Nc1c(C(=O)Nc2ccccc2F)sc2nc3c(cc12)C(=O)CCC3`, the GI50 was 247 nM and the TGI came to 956 nM.

Turning to `CN(CCCl)c1ccc(/C=C/C2=[N+](C)c3ccccc3C2(C)C)cc1`, the GI50 was 353 nM and the TGI came to 1690 nM.

Consider `CCN1C(=O)N(c2ccccc2)C2NN=c3s/c(=C4\C(=O)N(C(C)C)c5ccccc54)c(=O)n3C21` (centres undefined), for which the GI50 was 817 nM and the TGI is 4180 nM.

For the compound `COc1cc2nc3cc([N+](=O)[O-])ccc3c(NCCCNCC(C)(C)O)c2cc1OC`, the GI50 is 230 nM and the TGI was 570 nM.

Turning to `CCCCn1sc(=O)n(Cc2ccc(CNC(=O)OCc3ccc4c(Br)cc(Br)c(O)c4n3)cc2)c1=O`, the GI50 is 388 nM and the TGI is greater than 100000 nM.

For the compound `CCCCCc1ccc(S(=O)(=O)Nc2cc(-c3csc(NC(=O)CN4CCN(C)CC4)n3)ccc2OC)cc1`, the GI50 was 917 nM and the TGI was determined as 2110 nM.

With `c1ccc(Cn2c(-c3ccc(OC[C@H](C4CCNCC4)n4c(-c5ccccc5)nc5ccccc54)cc3)nc3ccccc32)cc1`, the GI50 was 1120 nM and the TGI was 2460 nM.

Turning to `COc1ccccc1S(=O)(=O)Nc1ccc2c(c1)CN(C)C(=O)N2`, the GI50 is 2400 nM and 1440 nM; the TGI was > 56100 nM and 50300 nM.

For the compound `COc1ccc(C(=O)c2cc3c(N)c(C(=O)Nc4cccc(Cl)c4C)sc3nc2C)cc1`, the GI50 is 70.7 nM and the TGI came to 1220 nM.

Consider `N[C@@H]1CCCN(c2c(/C=C3\SC(=O)NC3=O)cccc2-c2ccccc2)C1`, for which the GI50 is 9540 nM and the TGI came out at 24500 nM.

In the case of `CC1=C[S+](c2ccccc2)c2cccc3cc4ccccc4c1c23` (centres undefined), the GI50 was 78.5 nM and the TGI came out at 766 nM.

As to `CCOC(=O)c1cc2c(n1Cc1ccccc1)-c1oncc1CC2`, the GI50 is 2190 nM and the TGI turned out to be 7760 nM.

In the case of `CCCCCc1ccc(S(=O)(=O)N(C(C)=O)c2cccc(-c3csc(N(CCN4CCN(C)CC4)C(C)=O)n3)c2)cc1`, the GI50 is 735 nM and the TGI was 2710 nM.
